Patent publication US10842789B2, “Treatment of schizophrenia” (PIERRE FABRE MEDICAMENT, priority 2017, dated 2020)
Marks after values point to notes of the source that are not given here.

Tests used:
[1] = system: patients with acute exacerbation of schizophrenia; test: Double-blind placebo-controlled phase II study, patients with acute exacerbation of schizophrenia; format: in vivo, human
Description: N-(3-{4-[4-(8-oxo-8H-[1,3]dioxolo[4,5-g]chromen-7-yl)-butyl]-piperazin-1-yl}-phenyl)-methanesulfonamide hydrochloride has been tested in a placebo-controlled study of patients with an acute exacerbation of schizophrenia.
This double-blind, parallel group, multicenter study included patients with acute exacerbation of schizophrenia treated either with F17464 fixed dose 40 mg (20 mg bid) or placebo (randomization 1:1) for 6 weeks as antipsychotic monotherapy. The primary objective was to evaluate the efficacy of F17464 in comparison to placebo. The primary efficacy criterion was the PANSS (Positive and Negative Syndrome Scale) total score change from baseline to Day 43 on the Full Analysis Set (FAS).
Inclusion criteria included a well-documented diagnosis of schizophrenia for a minimum of 1 year, and a recent acute exacerbation characterized by a PANSS total score at screening ≥70 and <120 with no significant change of the PANSS positive subscore between the screening and randomization visits; and Clinical Global Impression of Severity (CGI-S) score ≥4.
All patients had discontinued previous treatments within the week prior to administration of study medication.
Following screening, patients were maintained in hospital till the 3rd week of treatment. Patients who had CGI-I (Clinical Global Impression of Improvement) score of ≤3 after 3 or 4 weeks were then eligible for hospital discharge and could continue study participation as outpatients.
The PANSS scores of the tested patients were established each week.
Schizophrenia History: Before Screening Visit • Patient with a current primary diagnosis of schizophrenia undergoing an acute exacerbation with prominent “active phase” symptoms, as described by the Diagnostic and Statistical Manual of Mental Disorders, 4th edition—Text Revision (DSM IV-TR) using the MINI 6.0 (Mini-International Neuropsychiatric Interview) for schizophrenia and psychotic disorders related to DSM IV-TR; • For a minimum of 1 year, well-documented diagnosis with the first hospitalization for acute exacerbation of schizophrenia; • Since the diagnosis of schizophrenia, the average number of hospitalizations should be no higher than 2 per year (the minimum duration of hospitalization should be more than 4 days); • During the year before screening visit, maximum 3 acute psychotic episodes that required hospitalization or change of antipsychotic medication or other therapeutic intervention; • Adequate clinical response to well-conducted treatment courses during previous acute episodes. A well conducted treatment course is defined as an antipsychotic treatment with the usual doses for at least 4 weeks. Current Acute Episode: • Structured Clinical Interview for the Positive And Negative Syndrome Scale (SCI-PANSS) with a PANSS total score ≥70 to <120 (at screening and randomization visits); • Rating of at least 4 (moderate) on at least 2 of the following 4 PANSS positive symptoms: delusions, hallucinatory behavior, conceptual disorganization, suspiciousness/persecution; • Clinical Global Impression of Severity (CGI-S) score ≥4 (moderate or severe). • Antipsychotic initiated for this acute episode and/or ongoing chronic antipsychotic treatment, with a maximum of 2 antipsychotics in total needed to be changed (due to inefficacy or safety reasons); • Hospitalization and/or treatment for the current psychotic episode for less than 2 weeks prior to screening visit; • No significant improvement of PANSS total score between enrolment (screening visit) and inclusion (randomization visit) corresponding to a score improvement <20% on positive symptoms subscale. Examination: • Normal physical examination results, vital signs and clinical laboratory test results or other results judged not clinically significant by the investigator; • Body mass index (BMI)≥18 and ≤35 kg/m^2 inclusive. […]

[2] = molecular target: T1, human recombinant dopamine D2L receptor (Homo sapiens, UniProt P14416); test: [3H] spiperone binding, cells expressing human recombinant dopamine D2L receptors
T1 construct: expressed in transfected cells
Description: (§1) The activity of F17464 was evaluated at recombinant dopaminergic receptors in vitro for its profile at D2 and D3 receptor. […] F17464 was also evaluated for its agonist, partial agonist, or antagonist activity at the dopamine D3 receptor by using the MAP-kinase activity test on human recombinant dopamine D3 receptors (Cussac et al., Mol. Pharmacol. 1999, 56, 1025-1030).
(§2) As used herein, the term “selective D3 antagonist” refers to a D3 antagonist, as defined here above, that has more affinity for the D3 receptor than for the D2 receptor (D2S and/or D2L). Affinity of a compound for a receptor is usually expressed as a Ki value. Preferentially, the relative binding affinities are determined in competitive radioligand binding studies using cells expressing human recombinant dopamine D3, D2S or D2L receptors (Newman-Tancredi et al. British Journal of Pharmacology, 2007, 151, 237-252). More preferentially, it is defined in [^3H] spiperone binding studies using cells expressing human recombinant dopamine D3 receptors or human recombinant dopamine D2L or D2S receptors (Cussac et al. Naunyn-Schmiedeberg's Arch Pharmacol, 2000, 361, 569-572).

[3] = molecular target: T2, human recombinant dopamine D2S receptor (Homo sapiens, UniProt P14416); test: [3H] spiperone binding, cells expressing human recombinant dopamine D2S receptors
T2 construct: expressed in transfected cells
Description: as §1, §2

[4] = system: D2 receptor; details: healthy subjects, after two single dose levels; cited from earlier work
[5] = molecular target: T3, D3 (Homo sapiens, UniProt P35462); details: healthy subjects, after two single dose levels; cited from earlier work
T3 construct: from tissue; host or cells: brain of healthy subjects in vivo (PET)

[6] = F17464 versus placebo, FAS population n = 67
[7] = F17464 versus placebo, NS subgroup n = 29
[8] = NS subgroup versus FAS population
[9] = NS subgroup versus FAS population, score points
[10] = baseline to end of treatment, FAS

T2 sequence (P14416 1-414 isoform P14416-2): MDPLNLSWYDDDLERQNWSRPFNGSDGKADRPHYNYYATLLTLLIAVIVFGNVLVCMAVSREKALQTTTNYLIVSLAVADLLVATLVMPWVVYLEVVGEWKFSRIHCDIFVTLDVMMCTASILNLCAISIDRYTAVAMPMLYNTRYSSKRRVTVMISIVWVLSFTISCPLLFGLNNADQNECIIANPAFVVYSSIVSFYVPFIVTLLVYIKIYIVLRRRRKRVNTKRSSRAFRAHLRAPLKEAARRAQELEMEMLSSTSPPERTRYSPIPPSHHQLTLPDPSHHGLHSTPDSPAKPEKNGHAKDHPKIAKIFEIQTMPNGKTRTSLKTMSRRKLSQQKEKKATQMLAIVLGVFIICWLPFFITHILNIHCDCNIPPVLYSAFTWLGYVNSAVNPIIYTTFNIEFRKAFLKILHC
T1 sequence (P14416 whole entry): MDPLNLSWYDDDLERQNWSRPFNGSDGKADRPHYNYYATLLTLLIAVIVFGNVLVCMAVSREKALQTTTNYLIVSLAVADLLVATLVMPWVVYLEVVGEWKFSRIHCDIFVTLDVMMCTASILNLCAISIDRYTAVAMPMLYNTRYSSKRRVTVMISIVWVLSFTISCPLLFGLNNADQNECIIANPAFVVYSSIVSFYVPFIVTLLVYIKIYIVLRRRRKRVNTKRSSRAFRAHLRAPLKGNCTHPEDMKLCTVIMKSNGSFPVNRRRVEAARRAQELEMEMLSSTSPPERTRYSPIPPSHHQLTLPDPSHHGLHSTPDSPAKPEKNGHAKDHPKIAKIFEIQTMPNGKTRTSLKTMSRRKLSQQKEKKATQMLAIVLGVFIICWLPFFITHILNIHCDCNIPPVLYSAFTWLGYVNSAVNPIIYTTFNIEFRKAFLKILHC
T3 sequence (P35462 whole entry): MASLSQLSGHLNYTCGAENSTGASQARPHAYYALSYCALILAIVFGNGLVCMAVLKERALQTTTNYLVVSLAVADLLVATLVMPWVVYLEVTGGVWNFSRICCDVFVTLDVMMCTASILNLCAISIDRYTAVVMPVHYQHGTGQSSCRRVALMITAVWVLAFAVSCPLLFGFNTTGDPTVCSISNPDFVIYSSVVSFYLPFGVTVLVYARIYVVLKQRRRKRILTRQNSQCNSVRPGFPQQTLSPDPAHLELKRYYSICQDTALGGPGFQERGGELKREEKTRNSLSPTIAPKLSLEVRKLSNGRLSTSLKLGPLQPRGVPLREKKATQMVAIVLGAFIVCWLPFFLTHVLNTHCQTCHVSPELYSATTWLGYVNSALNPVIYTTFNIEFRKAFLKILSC

CS(=O)(=O)Nc1cccc(N2CCN(CCCCc3coc4cc5c(cc4c3=O)OCO5)CC2)c1 [F17464, N-(3-{4-[4-(8-oxo-8H-[1,3]dioxolo[4,5-g]chromen-7-yl)-butyl]-piperazin-1-yl}-phenyl)-methanesulfonamide]
clinically relevant hepatic, metabolic or cardio-vascular disorder ([1]; 20 mg bid, 6 weeks): no clinically relevant hepatic, metabolic (including clinically relevant weight gain) or cardio-vascular disorder | overall incidence of treatment-emergent adverse events (TEAEs) ([1]; 20 mg bid, 6 weeks): 70.1% | Treatment effect on change from baseline, PANSS general psychopathology [LSmean (SE)] [1, 6]: −3.6 (1.3) * | Treatment effect on change from baseline, PANSS negative symptoms [LSmean (SE)] [1, 6]: −0.7 (0.6)^ | Treatment effect on change from baseline, PANSS positive symptoms [LSmean (SE)] [1, 6]: −1.9 (1.0) * | Treatment effect on change from baseline, PANSS general psychopathology [LSmean (SE)] [1, 7]: −6.4 (2.0) * | Treatment effect on change from baseline, PANSS negative symptoms [LSmean (SE)] [1, 7]: −2.7 (1.1) * | Treatment effect on change from baseline, PANSS positive symptoms [LSmean (SE)] [1, 7]: −4.3 (1.6) * | Treatment effect on change from baseline, PANSS total score [LSmean (SE)] [1, 7]: −13 (4.1) * | PANSS general psychopathology, change from baseline [LSmean (SE)] ([1]; FAS population n = 67, Day 43): −6.6 (1.0) * | PANSS negative symptoms, change from baseline [LSmean (SE)] ([1]; FAS population n = 67, Day 43): −1.7 (0.4)^ | PANSS positive symptoms, change from baseline [LSmean (SE)] ([1]; FAS population n = 67, Day 43): −6.3 (0.8) * | Discontinuation for Adverse Event, number of patients ([1]; FAS, n = 67): 2 | Discontinuation for Adverse Event, percent of patients ([1]; FAS, n = 67): (3.0%) | Discontinuation for Lack Of Efficacy/Worsening of schizophrenia, number of patients ([1]; FAS, n = 67): 11 | Discontinuation for Lack Of Efficacy/Worsening of schizophrenia, percent of patients ([1]; FAS, n = 67): (16.4%) | reduction of PANSS total score versus placebo over time ([1]; From Day 22, FAS, LOCF): statistically higher than in placebo group | PANSS general psychopathology, change from baseline [LSmean (SE)] ([1]; NS subgroup n = 29, Day 43): −9.3 (1.5) * | PANSS negative symptoms, change from baseline [LSmean (SE)] ([1]; NS subgroup n = 29, Day 43): −4.3 (0.8) * | PANSS positive symptoms, change from baseline [LSmean (SE)] ([1]; NS subgroup n = 29, Day 43): −8.4 (1.2) * | PANSS total score, adjusted change from baseline [LSmean (SE)] ([1]; NS subgroup n = 29, Day 43): −21.8 (2.9) * | Difference of treatment effect, PANSS general psychopathology, percent [1, 8]: 78% | Difference of treatment effect, PANSS negative symptoms, percent [1, 8]: 285% | Difference of treatment effect, PANSS positive symptoms, percent [1, 8]: 126% | Difference of treatment effect, PANSS total score, percent [1, 8]: 110% | Difference of treatment effect, PANSS general psychopathology [1, 9]: 2.8 | Difference of treatment effect, PANSS negative symptoms [1, 9]: 2 | Difference of treatment effect, PANSS positive symptoms [1, 9]: 2.4 | Difference of treatment effect, PANSS total score [1, 9]: 6.8 | Response rate, PANSS total score reduction by 20% [1, 10]: 49.3% | Response rate, PANSS total score reduction by 30% [1, 10]: 27.0% | Time to first sustained PANSS 20% or 30% response ([1]; compared to placebo group, from D21 up to Day 42): Shorter | PANSS positive score and positive factor, defined by Marder, versus placebo ([1]; secondary criteria, FAS): statistically significantly greater | affinity for dopamine D2L receptor, times weaker than D3 ([2]; D2L versus D3): 71 times | Ki ([2]; [3H] spiperone binding): 12.1 nM | affinity for dopamine D2S receptor, times weaker than D3 ([3]; D2S versus D3): 38 times | Ki ([3]; [3H] spiperone binding): 6.5 nM | binding rate to D2 receptor (PET) [4]: modest | D3 binding rate (PET) [5]: strong and long-lasting
